Read-outs that look alike come from different tables or passages of the source.
Q: What does the source list for `COc1ncc(-c2nc3c(n2C(C)C)[C@H](c2ccc(Cl)cc2)N(c2cc(Cl)cn(C)c2=O)C3=O)c(OC)n1` [HDM201, (S)-5-(5-Chloro-1-methyl-2-oxo-1,2-dihydro-pyridin-3-yl)-6-(4-chloro-phenyl)-2-(2,4-dimethoxy-pyrimidin-5-yl)-1-isopropyl-5,6-dihydro-1H-pyrrolo[3,4-d]imidazol-4-one]?
A: Decreased Appetite, Grade 3/4 (1B 150 mg, N=8): 0 n (%); Dehydration, All Grades (1B 150 mg, N=8): 0 n (%); Dehydration, Grade 3/4 (1B 150 mg, N=8): 0 n (%); Diarrhoea, All Grades (1B 150 mg, N=8): 2 (25.0) n (%); Diarrhoea, Grade 3/4 (1B 150 mg, N=8): 0 n (%); Dry Skin, All Grades (1B 150 mg, N=8): 0 n (%); Dry Skin, Grade 3/4 (1B 150 mg, N=8): 0 n (%); Dysgeusia, All Grades (1B 150 mg, N=8): 0 n (%); Dysgeusia, Grade 3/4 (1B 150 mg, N=8): 0 n (%); Eye Pain, All Grades (1B 150 mg, N=8): 1 (12.5) n (%); Eye Pain, Grade 3/4 (1B 150 mg, N=8): 0 n (%); Fatigue, All Grades (1B 150 mg, N=8): 2 (25.0) n (%); Fatigue, Grade 3/4 (1B 150 mg, N=8): 1 (12.5) n (%); Folliculitis, All Grades (1B 150 mg, N=8): 1 (12.5) n (%); Folliculitis, Grade 3/4 (1B 150 mg, N=8): 0 n (%); Gamma-Glutamyltransferase Increased, All Grades (1B 150 mg, N=8): 1 (12.5) n (%); Gamma-Glutamyltransferase Increased, Grade 3/4 (1B 150 mg, N=8): 0 n (%); Headache, All Grades (1B 150 mg, N=8): 1 (12.5) n (%); Headache, Grade 3/4 (1B 150 mg, N=8): 0 n (%); Hyperkalaemia, All Grades (1B 150 mg, N=8): 0 n (%); Hyperkalaemia, Grade 3/4 (1B 150 mg, N=8): 0 n (%); Hypocalcaemia, All Grades (1B 150 mg, N=8): 0 n (%); Hypocalcaemia, Grade 3/4 (1B 150 mg, N=8): 0 n (%); Influenza Like Illness, All Grades (1B 150 mg, N=8): 1 (12.5) n (%); Influenza Like Illness, Grade 3/4 (1B 150 mg, N=8): 0 n (%); Lethargy, All Grades (1B 150 mg, N=8): 1 (12.5) n (%); Lethargy, Grade 3/4 (1B 150 mg, N=8): 0 n (%); Leukopenia, All Grades (1B 150 mg, N=8): 1 (12.5) n (%); Leukopenia, Grade 3/4 (1B 150 mg, N=8): 1 (12.5) n (%); Lipase Increased, All Grades (1B 150 mg, N=8): 2 (25.0) n (%); Lipase Increased, Grade 3/4 (1B 150 mg, N=8): 2 (25.0) n (%); Lymphopenia, All Grades (1B 150 mg, N=8): 2 (25.0) n (%); Lymphopenia, Grade 3/4 (1B 150 mg, N=8): 1 (12.5) n (%); Monocytosis, All Grades (1B 150 mg, N=8): 0 n (%); Monocytosis, Grade 3/4 (1B 150 mg, N=8): 0 n (%); Musculoskeletal Pain, All Grades (1B 150 mg, N=8): 0 n (%); Musculoskeletal Pain, Grade 3/4 (1B 150 mg, N=8): 0 n (%); Myalgia, All Grades (1B 150 mg, N=8): 0 n (%); Myalgia, Grade 3/4 (1B 150 mg, N=8): 0 n (%); Nausea, All Grades (1B 150 mg, N=8): 4 (50.0) n (%); Nausea, Grade 3/4 (1B 150 mg, N=8): 0 n (%); Neuralgia, All Grades (1B 150 mg, N=8): 1 (12.5) n (%); Neuralgia, Grade 3/4 (1B 150 mg, N=8): 0 n (%); Neutropenia, All Grades (1B 150 mg, N=8): 4 (50.0) n (%); Neutropenia, Grade 3/4 (1B 150 mg, N=8): 3 (37.5) n (%); Neutrophil Count Decreased, All Grades (1B 150 mg, N=8): 3 (37.5) n (%); Neutrophil Count Decreased, Grade 3/4 (1B 150 mg, N=8): 2 (25.0) n (%); Oedema, All Grades (1B 150 mg, N=8): 0 n (%); Oedema, Grade 3/4 (1B 150 mg, N=8): 0 n (%); Oral Candidiasis, All Grades (1B 150 mg, N=8): 1 (12.5) n (%); Oral Candidiasis, Grade 3/4 (1B 150 mg, N=8): 0 n (%); Platelet Count Decreased, All Grades (1B 150 mg, N=8): 1 (12.5) n (%); Platelet Count Decreased, Grade 3/4 (1B 150 mg, N=8): 0 n (%); Pruritus, All Grades (1B 150 mg, N=8): 1 (12.5) n (%); Pruritus, Grade 3/4 (1B 150 mg, N=8): 0 n (%); Thrombocytopenia, All Grades (1B 150 mg, N=8): 4 (50.0) n (%); Thrombocytopenia, Grade 3/4 (1B 150 mg, N=8): 2 (25.0) n (%); Total, All Grades (1B 150 mg, N=8): 7 (87.5) n (%); Total, Grade 3/4 (1B 150 mg, N=8): 4 (50.0) n (%); Vomiting, All Grades (1B 150 mg, N=8): 2 (25.0) n (%); Vomiting, Grade 3/4 (1B 150 mg, N=8): 0 n (%); Weight Decreased, All Grades (1B 150 mg, N=8): 0 n (%); Weight Decreased, Grade 3/4 (1B 150 mg, N=8): 0 n (%); White Blood Cell Count Decreased, All Grades (1B 150 mg, N=8): 1 (12.5) n (%); White Blood Cell Count Decreased, Grade 3/4 (1B 150 mg, N=8): 0 n (%); Abdominal Pain, All Grades (1B 200 mg, N=3): 0 n (%); Abdominal Pain, Grade 3/4 (1B 200 mg, N=3): 0 n (%); Alanine Aminotransferase Increased, All Grades (1B 200 mg, N=3): 0 n (%); Alanine Aminotransferase Increased, Grade 3/4 (1B 200 mg, N=3): 0 n (%); Alopecia, All Grades (1B 200 mg, N=3): 0 n (%); Alopecia, Grade 3/4 (1B 200 mg, N=3): 0 n (%); Amylase Increased, All Grades (1B 200 mg, N=3): 1 (33.3) n (%); Amylase Increased, Grade 3/4 (1B 200 mg, N=3): 0 n (%); Anaemia, All Grades (1B 200 mg, N=3): 1 (33.3) n (%); Anaemia, Grade 3/4 (1B 200 mg, N=3): 0 n (%); Asthenia, All Grades (1B 200 mg, N=3): 0 n (%); Asthenia, Grade 3/4 (1B 200 mg, N=3): 0 n (%); Blood Bilirubin Increased, All Grades (1B 200 mg, N=3): 0 n (%); Blood Bilirubin Increased, Grade 3/4 (1B 200 mg, N=3): 0 n (%); Blood Creatine Phosphokinase Increased, All Grades (1B 200 mg, N=3): 0 n (%); Blood Creatine Phosphokinase Increased, Grade 3/4 (1B 200 mg, N=3): 0 n (%); Blood Creatinine Increased, All Grades (1B 200 mg, N=3): 0 n (%); Blood Creatinine Increased, Grade 3/4 (1B 200 mg, N=3): 0 n (%); Decreased Appetite, All Grades (1B 200 mg, N=3): 0 n (%); Decreased Appetite, Grade 3/4 (1B 200 mg, N=3): 0 n (%); Dehydration, All Grades (1B 200 mg, N=3): 0 n (%); Dehydration, Grade 3/4 (1B 200 mg, N=3): 0 n (%); Diarrhoea, All Grades (1B 200 mg, N=3): 0 n (%); Diarrhoea, Grade 3/4 (1B 200 mg, N=3): 0 n (%); Dry Skin, All Grades (1B 200 mg, N=3): 0 n (%); Dry Skin, Grade 3/4 (1B 200 mg, N=3): 0 n (%); Dysgeusia, All Grades (1B 200 mg, N=3): 0 n (%); Dysgeusia, Grade 3/4 (1B 200 mg, N=3): 0 n (%); Eye Pain, All Grades (1B 200 mg, N=3): 0 n (%); Eye Pain, Grade 3/4 (1B 200 mg, N=3): 0 n (%); Fatigue, All Grades (1B 200 mg, N=3): 1 (33.3) n (%); Fatigue, Grade 3/4 (1B 200 mg, N=3): 0 n (%); Folliculitis, All Grades (1B 200 mg, N=3): 0 n (%); Folliculitis, Grade 3/4 (1B 200 mg, N=3): 0 n (%); Gamma-Glutamyltransferase Increased, All Grades (1B 200 mg, N=3): 0 n (%); Gamma-Glutamyltransferase Increased, Grade 3/4 (1B 200 mg, N=3): 0 n (%); Headache, All Grades (1B 200 mg, N=3): 0 n (%); Headache, Grade 3/4 (1B 200 mg, N=3): 0 n (%); Hyperkalaemia, All Grades (1B 200 mg, N=3): 0 n (%)

— patent publication US20210363254A1, “PHARMACEUTICAL COMBINATIONS” (Novartis AG, priority 2018, published 2021)
